Test results: patent US10301320B2, “Compositions and methods of modulating 15-PGDH activity” (CASE WESTERN RESERVE UNIVERSITY, priority 2012, dated 2019)
Like-named read-outs stand apart in the source and are kept apart here.

Molecular target: recombinant 15-PGDH protein (Homo sapiens (Human), UniProt P15428)
Assay: Inhibition of enzymatic activity of recombinant 15-PGDH in vitro;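 also: activity of recombinant human 15-PGDH assayed in vitro using PGE2 as the substrate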
Type: biochemical
Conditions: read-out: Enzyme inhibition % ([…]), recombinant 15-PGDH, […] compound
[1] = read-out: Enzyme inhibition % (2.5 μM)
[2] = read-out: Enzyme inhibition % (7.5 μM)

Chain of recombinant 15-PGDH protein (P15428 whole entry): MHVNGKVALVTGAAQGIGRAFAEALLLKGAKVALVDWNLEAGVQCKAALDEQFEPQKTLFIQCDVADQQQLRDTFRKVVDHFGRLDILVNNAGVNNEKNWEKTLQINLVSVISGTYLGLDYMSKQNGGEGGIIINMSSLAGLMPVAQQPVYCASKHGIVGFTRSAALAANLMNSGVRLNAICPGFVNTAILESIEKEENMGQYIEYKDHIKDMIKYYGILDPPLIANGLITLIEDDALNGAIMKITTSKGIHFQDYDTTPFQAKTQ

SMILES	inhibition at […] [1] [%]	inhibition at […] [2] [%]
COc1ccc(OC)c(N(CC(=O)N2CCCC2=O)S(=O)(=O)c2ccccc2)c1 [SW208002]	34.7	59.2
COc1ccc(OC)c(N(CC(=O)N2CCCCCC2)S(=O)(=O)c2ccccc2)c1 [SW208000]	5.82	12.5
COc1cccc(NC(=O)CN(c2cc(OC)ccc2OC)S(=O)(=O)c2ccccc2)c1 [SW202976]	7.87	29.8
COc1ccc(OC)c(N(C(C)C(=O)Nc2cccnc2)S(=O)(=O)c2ccccc2)c1 (stereo not shown) [SW202991]	-14.7	-6
COc1ccc(OC)c(N(CC(=O)Nc2ccccc2)S(=O)(=O)c2ccccc2)c1 [SW203687]	15.1	33.5
COc1ccc(OC)c(N(CC(=O)Nc2cccnc2)S(=O)(=O)c2c(C)cc(C)cc2C)c1 [SW202953]	8.81	15.1
COc1ccc(OC)c(N(CC(=O)Nc2cccnc2)S(=O)(=O)c2ccccc2Cl)c1 [SW202949]	12.5	34.4
COc1ccc(OC)c(N(CC(=O)Nc2cccnc2Cl)S(=O)(=O)c2ccccc2)c1 [SW202973]	3.3	13.6
COc1ccc(S(=O)(=O)N(CC(=O)Nc2ccncc2)c2cc(OC)ccc2OC)cc1 [SW202989]	81.3	89.9
COc1ccc(OC)c(N(CC(=O)Nc2cnccc2C)S(=O)(=O)c2ccccc2)c1 [SW202967]	-11.6	0.94
COc1ccc(OC)c(N(CC(=O)Nc2cncc(Cl)c2)S(=O)(=O)c2ccccc2)c1 [SW202990]	22.9	47.2
COc1ccc(OC)c(N(CC(=O)Nc2ccc(C)nc2)[S@SP3](=O)(=O)c2ccccc2)c1 [SW202988]	10.3	33.7
COc1ccc(OC)c(N(CC(=O)Nc2ccccc2C)S(=O)(=O)c2ccccc2)c1 [SW202975]	-14.8	4.53
COc1ccc(OC)c(N(CC(=O)Nc2ccncc2F)S(=O)(=O)c2ccccc2)c1 [SW208004]	52.3	57
COc1ccc(OC)c(N(CC(=O)OC2CCCCC2)S(=O)(=O)c2ccccc2)c1 [SW202978]	4.14	3.12
COc1ccc(OC)c(N(CC(=O)Nc2cccc(Cl)c2)S(=O)(=O)c2ccccc2)c1 [SW202985]	13.8	30.9
COc1ccc(OC)c(N(CC(=O)Nc2cccnc2)S(=O)(=O)c2ccccc2C(F)(F)F)c1 [SW202944]	28.3	57.8
COc1ccc(OC)c(N(CC(=O)Nc2cccnc2C)S(=O)(=O)c2ccccc2)c1 [SW202968]	-7.09	0.78
COc1ccc(OC)c(N(CC(=O)Nc2cccc(C)c2)S(=O)(=O)c2ccccc2)c1 [SW202969]	0.91	9.43
COc1ccc(OC)c(N(CC(=O)Nc2nccs2)S(=O)(=O)c2ccccc2)c1 [SW203691]	2.62	

SMILES	inhibition at […] [1] [%]	inhibition at […] [2] [%]
COc1ccc(OC)c(N(CC(=O)Nc2ccccc2OC)S(=O)(=O)c2ccccc2)c1 [SW202965]	11.3	33.1
COc1ccc(S(=O)(=O)N(CC(=O)Nc2cccnc2)c2cc(C(F)(F)F)ccc2C(F)(F)F)cc1 [SW208008]	58.7	70.9
COc1ccc(OC)c(N(CC(=O)Nc2cccnc2)S(=O)(=O)c2ccc(C(C)=O)cc2)c1 [SW202950]	46.3	56.4
CCCOC(=O)CN(c1cc(OC)ccc1OC)[S@SP3](=O)(=O)c1ccccc1 [SW202986]	-2.22	2.58
COc1ccc(OC)c(N(CC(=O)N2CCCCC2)S(=O)(=O)c2ccccc2)c1 [SW131633]	23.1	35.2
COC(=O)CN(c1cc(OC)ccc1OC)S(=O)(=O)c1ccccc1 [SW202980]	-4.19	1.44
COc1ccc(OC)c(N(CC(=O)Nc2ccnc(C)c2)S(=O)(=O)c2ccccc2)c1 [SW202966]	44.7	61.4
COc1ccc(OC)c(N(CC(=O)Nc2cncnc2)S(=O)(=O)c2ccccc2)c1 [SW203683]	23.4	57.1
COc1ccc(OC)c(N(CC(=O)Nc2cccnc2)S(=O)(=O)c2cccc(C)c2)c1 [SW203684]	36.4	64.7
CCOC(=O)CN(c1cc(OC)ccc1OC)S(=O)(=O)c1ccccc1 [SW202951]	-15.4	-8.59
COc1ccc(OC)c(N(CC(=O)Nc2ccccn2)S(=O)(=O)c2ccccc2)c1 [SW202941]	10.9	35.6
COc1ccc(OC)c(CN(CC(=O)Nc2cccnc2)S(=O)(=O)c2ccccc2)c1 [SW203688]	13.1	40
COc1ccc(OC)c(N(CC(=O)Nc2cncc(C)c2)S(=O)(=O)c2ccccc2)c1 [SW202974]	-4.42	24.9
COc1ccc(OC)c(N(CC(=O)Nc2ccccc2Cl)S(=O)(=O)c2ccccc2)c1 [SW202987]	4.61	6.13
COc1ccc(OC)c(N(CC(=O)Nc2cccnc2)S(=O)(=O)c2ccccc2C#N)c1 [SW202945]	8.83	11.1
COc1ccc(OC)c(N(CC(=O)Nc2cccnc2)S(=O)(=O)c2ccccc2C)c1 [SW202943]	-7.42	21.8
CNC(=O)CN(c1cc(OC)ccc1OC)S(=O)(=O)c1ccccc1 [SW203682]	15.7	36.2
COc1ccc(OC)c(N(CC(=O)N(C)c2cccnc2)S(=O)(=O)c2ccccc2)c1 [SW203686]	14.9	34.2
COc1ccc(OC)c(N(CC(=O)OC(C)(C)C)S(=O)(=O)c2ccccc2)c1 [SW202979]	3.92	6.24
COc1ccc(OC)c(N(CC(=O)N2CCCC2)S(=O)(=O)c2ccccc2)c1 [SW208001]	21.8	27.7

SMILES	inhibition at […] [1] [%]	inhibition at […] [2] [%]
COc1ccc(OC)c(N(CC(=O)Nc2ccncc2)S(=O)(=O)c2ccccc2)c1 [SW202938]	52.7	75.6
COc1ccc(OC)c(N(CC(=O)Nc2cccnc2)S(=O)(=O)c2ccccc2OC(F)(F)F)c1 [SW202954]	6.02	9.88
COc1ccc(OC)c(N(CC(=O)Nc2cccnc2)S(=O)(=O)c2ccccc2F)c1 [SW202947]	28.8	59.2
COc1ccc(OC)c(N(CC(=O)Nc2cccnc2)C(C)=O)c1 [SW202952]	29	57
COc1ccc(OC)c(N(CC(=O)Nc2cccnn2)S(=O)(=O)c2ccccc2)c1 [SW203680]	34.8	62.1
COc1ccc(OC)c(N(CC(=O)Nc2cccnc2)S(=O)(=O)c2ccc(C)cc2)c1 [SW202939]	53.5	78.3
COc1ccc(OC)c(N(CC(=O)Nc2ccc(Cl)nc2)S(=O)(=O)c2ccccc2)c1 [SW202970]	17.5	48
COc1ccc(OC)c(N(CC(=O)OC(C)C)S(=O)(=O)c2ccccc2)c1 [SW202971]	-0.72	-13.2
COc1ccc(OC)c(N(CC(=O)N2CCCc3ccccc32)S(=O)(=O)c2ccccc2)c1 [SW208006]	15.7	24.8
COc1ccc(OC)c(N(CC(=O)O)S(=O)(=O)c2ccccc2)c1 [SW122063]	-12.2	-10.5
COc1ccc(OC)c(N(CC(=O)Nc2ccnc(F)c2)S(=O)(=O)c2ccccc2)c1 [SW208005]	44.1	52
COc1ccc(OC)c(N(CC(=O)N2CCc3ccccc32)S(=O)(=O)c2ccccc2)c1 [SW208003]	15.2	20.9
COc1ccc(OC)c(N(CC(N)=O)S(=O)(=O)c2ccccc2)c1 [SW131635]	11.8	35.4
COc1ccc(OC)c(N(CC(=O)Nc2ccnc(Cl)c2)S(=O)(=O)c2ccccc2)c1 [SW202946]	81.6	89.8
COc1ccc(OC)c(N(CC(=O)Nc2ccnnc2)S(=O)(=O)c2ccccc2)c1 [SW203685]	44.3	73.3
COc1ccc(OC)c(N(CC(=O)Nc2cnccn2)S(=O)(=O)c2ccccc2)c1 [SW203681]	36.8	64.9
COc1ccc(OC)c(NCC(=O)Nc2cccnc2)c1 [SW202948]	28.3	56.7
COc1ccc(OC)c(N(CC(=O)Nc2cc(C)cnc2Cl)S(=O)(=O)c2ccccc2)c1 [SW202972]	-6.29	-2.94
